# Data published in patent US12157743B2, “Solid forms of Alpha-1062 gluconate” (priority 2021, dated 2024).
# Entries after “also recorded” stand apart in the source; their conditions may differ.
# Key:
# [1] = Polymorph screen: ambient slurries of Form A in solvents, XRPD; type: physicochemical; conditions: 14 d
# Description: A polymorph screening study was initiated to investigate the presence and identity of various solid materials that may be possible for Alpha-1062 Gluconate. This study used lot CA19-1144 as the starting material and utilized various solvent systems and conditions to isolate and study the materials produced during the studies (Table 5). The various materials were analyzed by XRPD and the various solid forms identified as shown (FIG. 6).
# [2] = Relative humidity stressing of solid samples, XRPD; type: physicochemical
# Excerpt: (§1) To investigate the stability of the four pure crystalline forms of Alpha-1062 Gluconate, water activity (aw) slurries using a variety of mixed aqueous/organic solvent systems (Table 6) along with relative humidity stressing (Table 7) were used to define the regions of stability for the given hydrates of Alpha-1062 Gluconate.
# [3] = Dynamic vapor sorption (DVS) isotherm; type: physicochemical; conditions: for DVS hysteresis: 5 to 95 to 5% RH; for XRPD of post DVS sample (solid form): material recovered after DVS cycle ending at 5% RH
# Excerpt: As used herein, DVS (Dynamic Vapor Sorption) is a gravimetric technique to measure the rate and amount of absorption of a solvent by a sample under controlled conditions. […]
# [4] = Water activity (aw) slurries in mixed aqueous/organic solvent systems, XRPD; type: physicochemical; conditions: for Result (solid form after slurry): ambient; for Water activity at which the form is the most stable form: from water activity slurries and RH stressing, Form C: above 0.12 aw up to the value
# Excerpt: as §1
# [5] = Storage and XRPD reanalysis; type: physicochemical; conditions: reanalyzed
# Excerpt: Material G: Alpha-1062 Gluconate, Samples 8235-87-01 and 8235-100-02 (Table 15). Material G has been observed from evaporative experiments of both 1,4-dioxane and THF. […] Based on the spontaneous conversion, Material G is metastable with Form B at that condition. Material G was not observed during any of the water activity slurries or relative humidity work.
# Amorphous: Alpha-1062 Gluconate, sample 8235-76-13 (Table 16) has been observed from slow evaporation from methanol (Table 5). […] No significant impurity increases were observed by ^1H NMR. • Thermal Analysis (FIG. 35). A cyclic DSC was conducted to determine the glass transition (Tg) temperature of the amorphous solid. The glass transition temperature was determined to be near 41° C. Decomposition was observed upon continued heating with no nucleation.
# [6] = Heat / vacuum stressing analysed by XRPD; type: physicochemical
# Description: Form B: Alpha-1062 Gluconate, Sample 8235-82-08 (Table 10). Form B is a tetrahydrate crystalline lattice. It appears that at least one of the four water sites in the crystal lattice is somewhat labile. […] The formula unit volume of 772 Å^3 calculated from the indexing results is larger than Form A by 84 Å^3. […] A broad endotherm with an onset of 66° C. (concurrent with weight loss in the TGA) is observed in the DSC consistent with desolvation. […] Upon desorption, 1.8% weight loss from 95-15% RH followed by 6.8% weight loss from 15-5% RH was observed. The DVS data was corrected for water content measured by KF at 57% RH (FIG. 18). A stable plateau of between 3.6 and 3.9 mol/mol of water for Form B is evident between 15 and 85% RH.
# Form C: Alpha-1062 Gluconate, Sample 8235-87-02 (Table 11). Form C was determined to be a monohydrate crystal lattice occupied at only about 0.4 to 0.5 mol/mol of water. […] The XRPD pattern was successfully indexed by a single primitive monoclinic unit cell. The formula unit volume of 706 Å^3 calculated from the indexing results is larger than Form A by 18 Å^3. […] An endotherm with an onset of 119° C. is observed in the DSC. • Form C (sample 8235-92-04) was held at 11% RH for seven days and analyzed by XRPD and DSC for comparison (sample 8296-08-01). […] The DVS data was corrected for water content measured by KF at 11% RH (FIG. 25). […]
# [7] = steady-state, human brain vs blood; cited from earlier work
# [8] = IPA/H2O 97:03 v/v, 0.31 aw, 13 d
# [9] = MEK/H2O 98:02 v/v, 0.42 aw, 13 d
# [10] = water activity slurries and RH stressing
structure (smiles),measurement,setting,value
"COc1ccc2c3c1O[C@H]1C[C@@H](OC(=O)c4ccccc4)C=C[C@@]31CCN(C)C2.O=C(O)C(O)C(O)C(O)C(O)CO [Form A, Alpha-1062 gluconate]",Result (solid form after slurry),[1]; EtOH,C + A
same,Result (solid form after slurry),[1]; acetone,C + D
same,Result (solid form by XRPD),"[2]; 43% RH, 5 d",kinetically stable
same,Result (solid form by XRPD),"[2]; 75% RH, 1 d",D + minor A
same,Result (solid form by XRPD),"[2]; 75% RH, 2 d",D + minor B
same,Hygroscopicity (DVS assessment),[3],significant hygroscopicity above 75% RH
same,DVS hysteresis,[3],Hysteresis was observed
same,DVS hysteresis,[3]; listed as CA19-1144,hysteresis observed
same,DVS wt. gain,[3]; from 5 to 75% RH (sorption),0.57 % wt.
same,DVS wt. gain,"[3]; from 5 to 75% RH (sorption), listed as CA19-1144",0.57% wt. gain from 5 to 75% RH
same,DVS wt. gain,[3]; from 75 to 85% RH (sorption),2.97 % wt.
same,DVS wt. gain,"[3]; from 75 to 85% RH (sorption), listed as CA19-1144",2.96% wt. gain from 75 to 85% RH
same,DVS wt. loss,[3]; from 85 to 5% RH (desorption),2.98% wt. loss from 85 to 5% RH
same,DVS wt. gain,[3]; from 85 to 95% RH (sorption),8.7 % wt.
same,DVS wt. gain,"[3]; from 85 to 95% RH (sorption), listed as CA19-1144",8.67% wt. gain from 85 to 95% RH
same,DVS wt. loss,[3]; from 95 to 85% RH (desorption),1.73% wt. loss from 95 to 85% RH
same,XRPD of post DVS sample (solid form),[3],Form A+minor peaks of Form B
same,XRPD of post DVS sample (solid form),[3]; listed as CA19-1144,Form A + B (trace)
same,Water gain at stable desorption plateau,[3]; weight within stable plateau on desorption,more than 3 mol/mol
same,Result (solid form after slurry),"[4]; MEK/H2O 98:02 v/v, 0.42 aw, 1 d",C + B
same,Result (solid form after slurry),"[4]; MEK/H2O 98:02 v/v, 0.42 aw, 2 d",C + B
same,Result (solid form after slurry),"[4]; MEK/H2O 99:01 v/v, 0.27 aw, 7 d",C + A
same,Water activity at which the form is the most stable form,[4],less than 0.12 aw
"COc1ccc2c3c1O[C@H]1C[C@@H](OC(=O)c4ccccc4)C=C[C@@]31CCN(C)C2.O=C(O)C(O)C(O)C(O)C(O)CO [Material G, Alpha-1062 gluconate]",Solid form by XRPD on reanalysis,[5]; 5 weeks,partially converted to Form B; also recorded: Material G + Form B
"COc1ccc2c3c1O[C@H]1C[C@@H](OC(=O)c4ccccc4)C=C[C@@]31CCN(C)C2.O=C(O)C(O)C(O)C(O)C(O)CO [Form C + B, Alpha-1062 gluconate]",Result (solid form by XRPD),"[2]; 0% RH, P2O5, 1 d",C+ A
"COc1ccc2c3c1O[C@H]1C[C@@H](OC(=O)c4ccccc4)C=C[C@@]31CCN(C)C2.O=C(O)C(O)C(O)C(O)C(O)CO [amorphous Alpha-1062 Gluconate, Alpha-1062 gluconate]",Solid form by XRPD on reanalysis,[5]; 5 weeks,amorphous
same,Solid form by XRPD on reanalysis,"[5]; 5 weeks, listed as Amorphous",remain amorphous
same,Solid form by XRPD on reanalysis,[5]; 13 days,Form B + C
same,Solid form by XRPD on reanalysis,"[5]; 13 days, listed as Amorphous",spontaneously crystallized to a mixture of Forms B and C
"COc1ccc2c3c1O[C@H]1C[C@@H](OC(=O)c4ccccc4)C=C[C@@]31CCN(C)C2.O=C(O)C(O)C(O)C(O)C(O)CO [Form C, Alpha-1062 gluconate]",Solid form by XRPD after vacuum storage,"[6]; vacuum, 45° C., 3 hrs",remained Form C with the presence of a minor amount of Form A
same,Result (solid form by XRPD),"[2]; 0% RH, P2O5, 1 d",C + minor A
same,Result (solid form by XRPD),"[2]; 11% RH, 4 d",remained Form C
same,Result (solid form by XRPD),"[2]; 11% RH, 7 d",remained Form C
same,Hygroscopicity (DVS assessment),[3],significant hygroscopicity above 75% RH
same,DVS hysteresis,[3],hysteresis observed
same,Water retained after DVS,[3]; DVS corrected for KF water content at 11% RH,~1.4 mol/mol
same,DVS wt. gain,[3]; from 5-65% RH (sorption),0% wt. gain from 5-65% RH
same,DVS wt. gain,[3]; from 5 to 75% RH (sorption),no significant weight gain
same,DVS wt. retained,[3]; from 75-5% RH (desorption),~3% wt. retained from 75-5% RH
same,XRPD of post DVS sample (solid form),[3],mixture of Forms C and B; also recorded: Form C + B
same,Result (solid form after slurry),[4]; [8],C + B
same,Result (solid form after slurry),[4]; [9],C + B
same,Water activity at which the form is the most stable form,[4],up to 0.5 aw
"COc1ccc2c3c1O[C@H]1C[C@@H](OC(=O)c4ccccc4)C=C[C@@]31CCN(C)C2.O=C(O)C(O)C(O)C(O)C(O)CO [Form B, Alpha-1062 gluconate]",Solid form by XRPD after heating,"[6]; 40-75° C., 10 min (in DSC)",partial dehydration and conversion to a mixture of Forms D and C; also recorded: Form D + C + peak
same,Result (solid form by XRPD),"[2]; 0% RH, P2O5, 1 d",dehydrate to Form A
same,Result (solid form by XRPD),"[2]; 57% RH, 4 d",remained Form B
same,Hygroscopicity (DVS assessment),[3],limited hygroscopicity
same,DVS wt. loss,[3]; from 15-5% RH (desorption),6.8% wet loss from 15-5% RH % wt.
same,XRPD of post DVS sample (solid form),[3],anhydrous Form A
same,Result (solid form after slurry),[4]; [8],C + B
same,Result (solid form after slurry),[4]; [9],C + B
same,Water activity at which the form is the most stable form,[4],Above 0.5 aw
same,Water activity of solvent systems in which the form was observed,[4]; in equilibrium Form B/Form C between 0.31 and 0.52 aw,above 0.52 aw
"COc1ccc2c3c1O[C@H]1C[C@@H](OC(=O)c4ccccc4)C=C[C@@]31CCN(C)C2.O=C(O)C(O)C(O)C(O)C(O)CO [Form D + B, Alpha-1062 gluconate]",Result (solid form by XRPD),"[2]; 75% RH, 1 d",D + B
"COc1ccc2c3c1O[C@H]1C[C@@H](OC(=O)c4ccccc4)C=C[C@@]31CCN(C)C2.O=C(O)C(O)C(O)C(O)C(O)CO [Forms B + D, Alpha-1062 gluconate]",Result (solid form after slurry),"[4]; MEK/H2O 97:03 v/v, 0.52 aw, 7 d",B + C
COc1ccc2c3c1O[C@H]1C[C@@H](O)C=C[C@@]31CCN(C)C2 [galantamine],brain-to-blood concentration ratio (BBCR),[7],< 2
"COc1ccc2c3c1O[C@H]1C[C@@H](OC(=O)c4ccccc4)C=C[C@@]31CCN(C)C2.O=C(O)C(O)C(O)C(O)C(O)CO [Form D, Alpha-1062 gluconate]",Result (solid form by XRPD),"[2]; 75% RH, 1 d",Form D + minor B
same,Relative humidity at which the form converts to Form C,[2]; [10],< 52 % RH
same,Relative humidity of extended exposure at which the form converts to Form B,[2]; [10],≥ 52 % RH
same,Result (solid form after slurry),[4]; [8],C + B
same,Result (solid form after slurry),[4]; [9],C + B
same,Water activity at which the form is the most stable form,[4],does not appear stable at any of the conditions evaluated
"COc1ccc2c3c1O[C@H]1C[C@@H](OC(=O)c4ccccc4)C=C[C@@]31CCN(C)C2.O=C(O)C(O)C(O)C(O)C(O)CO [Form D + A, Alpha-1062 gluconate]",Result (solid form by XRPD),"[2]; 75% RH, 4 d",B + D
